Two compounds from patent publication US11597917B2, “In vitro and in vivo enrichment strategy targeting lymphocytes derived from vector transduced HSCs for therapy of disorders” (THE MEDICAL COLLEGE OF WISCONSIN, INC., priority 2017, dated 2023) can be followed below.

Each structure is given as a SMILES string.

Data set [1] concerns Jurkat cells. The data set can be described thus: In vitro enrichment of transduced Jurkat cells with MPA: vector copy number per genome by qPCR. Type of data set: cell-based. Particulars: Jurkat cells transduced with dual promoter vector; 0.5 μM MPA vs DMSO, 16 days; FIG. 4C. On the procedure:
(§1) In this Example, Jurkat cells (immortalized T cells) are used. […] 3 cell lines were generated by transducing Jurkat cells with the vectors described or with protamine sulphate only as a mock. VCN/genome was adjusted by dilution of the transduced cells with mock transduced cells. Each of these were seeded in 4 replicates and either treated with DMSO (vehicle) or 0.5 μM MPA. Fresh media with drug or vehicle was added after centrifuging the cells and discarding old media every two days. Samples were taken for cell counts. After 16 days of treatment, cells were reseeded for recovery in fresh media for a total of four days, after which they were counted and reseeded again for two days for α-gal A activity assay or one day for gDNA.
VCN was determined by comparison to a standard curve using a qPCR based method and normalized to the number of beta actin (ACTB) copies to determine a per genome value. Patterned bars in the chart refer to samples treated with DMSO and solid bars refer to those treated with MPA.
For orientation: Quantitative PCR measures a nucleic acid by following its amplification.

In data set [2] the test system is Jurkat cells. Put plainly: Glucocerebrosidase activity in supernatant of transduced Jurkat cells after MPA enrichment (fluorometric assay). Type of data set: cell-based. Particulars: cells transduced with GBA+(IY) virus and treated with MPA (0.5 μM, 16 days); FIG. 13. On the procedure: Jurkat cells were transduced with lentivirus at an MOI of ˜0.1-0.2. Cells were cultured for at least 2 weeks prior to measuring baseline vector copy number. Cell lines for each of LV/GBA+eGFP and LV/GBA+(IY), or non-transduced cells were produced in this way. To measure enrichment, testing was carried out as described in Example 2. Briefly, cells at known densities were seeded in quadruplicate for each cell line, and maintained in culture for 16 days with either vehicle (DMSO) or 0.5 μM MPA, with media being replaced every two days. After treatment, cells were diluted and recovered for 4-8 days. gDNA was extracted from cells sampled from each well, and vector copy number analyses were carried out using qPCR. Cells from each well were also seeded at known and equal densities for 72 hours, after which supernatant was collected, cleared of cells and debris, and glucocerebrosidase activity measured using a fluorometric assay. Briefly, supernatants were incubated for 1 hour with substrate solution containing 4-methylumbelliferyl-beta-D-glucopyranoside (15 mM). The reaction was quenched with 0.1M glycine at pH 10 and fluorescence of the reaction product quantified against a calibration curve of the product.

For data set [3], the system named is Jurkat cells. The data set can be described thus: α-gal A activity (4-MUG substrate) in lysates and supernatants of transduced Jurkat cells after MPA enrichment. Type of data set: cell-based. The note with it: Jurkat cells transduced with dual promoter vector; 0.5 μM MPA, 16 days, then recovery; FIGS. 4E and 4F. Here is the method:
as §1

Another data set has as its system Fabry mice. Put plainly: In vivo enrichment in Fabry mice engrafted with transduced HSPCs: observation of toxicities. The note with it: 0.15% MMF medicated chow ad libitum, 2 months of treatment.

Method for Fabry mice: Briefly, male and female Fabry mice aged 2-5 months of age are treated with 5-fluorouracil (5-FU) to deplete bone marrow cells and enrich for HSPCs. Four days after treatment these mice are euthanized, and bone marrow is isolated from femurs and tibia, and processed for transduction. Cells are cultured in stem cell media and transduced using lentivirus described above for 12 hours at a multiplicity of infection (MOI) of 10. Transduced cells are then harvested and prepared for administration to recipient mice. Recipients are male Fabry mice aged approximately 2 months. These are irradiated prior to engrafting transduced cells to deplete their own hematopoietic system. Some cells are retained in culture for an extra 48 hours to assay transduction. Mice are kept on prophylactic antibiotics as support during immune recovery. Engraftment of transduced cells is assessed by measuring VCN/genome in circulation using a qPCR-based assay and comparing to a standard curve, and by measuring plasma α-gal A activity. MMF medicated chow may be started after stable engraftment has been achieved, typically after 4 months. […] A baseline bleed was done to confirm engraftment and the mice were given 0.15% MMF capsule (TEVA generics, Israel) medicated chow ad libitum, and bled every 15 days to observe changes in plasma α-gal A activity, which is a measure of enrichment. […]

`COc1c(C)c2c(c(O)c1C/C=C(\C)CCC(=O)O)C(=O)OC2` [MPA, mycophenolic acid]: the “increase in the vector copy number of the total population per genome” value with Jurkat cells [1] is listed as ~8 fold. In addition, in the data set with Jurkat cells [2], the “enzyme activity in cell culture supernatant” value was “increased enzyme activity”. Besides, the “α-gal A activity in cell lysates and culture supernatants” value in the data set with Jurkat cells [3] is given as “corresponding increase in α-gal A activity”.

Turning to `COc1c(C)c2c(c(O)c1C/C=C(\C)CCC(=O)OCCN1CCOCC1)C(=O)OC2` [MMF, mycophenolate mofetil], the drug-related toxicities entry in the data set on Fabry mice is recorded as “No drug-related toxicities were observed”.
